Patent publication US8772237B2, “Compositions and methods for counteracting effects of reactive oxygen species and free radicals” (Ischemix, Inc., priority 1999, dated 2014)
Ends that are not written are not given here.

What was measured:
[1] = test system: middle cerebral artery (MCA) permanent occlusion stroke model; assay: Permanent MCA 24-hour occlusion stroke model; assay type: in vivo, Sprague-Dawley rats; details: Dose 0.05 mg/hr
[2] = test system: superoxide dismutase (SOD) protein; assay: Western immunoblot of SOD protein in rat brain primary cortical cultures; assay type: cell-based; details: for SOD: 5 hours at 37° C.
Protocol: Primary cortical cultures were obtained by growing newborn rat brain cortical cells in Delbecco's modified Eagle medium supplemented with 25 μg/ml of gentamycin and 10% fetal calf serum. The cells were isolated from the E-21 cortex of rat brain, plated at a density of 1×10^5 per ml and grown to confluence within four to five days in an atmosphere containing air and 5% CO2 at 37° C. as described in Cornell-Bell et al., Science, 247: 470-473 (1990) and Cell Calcium, 12: 185-204 (1991). Cultures were grown in 20 ml flasks as a monolayer and then exposed to various concentrations of peptides for studies of the effects of peptides on upregulation of genes for SOD and CAT and on the transmigration of transcription factor AP-1 to cell nuclei. […]
(§1) Tissue culture experiments were carried out using primary cultures of rat brain cortical cells as previously described above in Example 2. Primary cultures from embryonic rat brain isolated at E-21 (21 day embryos) and incubated for five hours with various doses: 1, 10, 100 ng/ml of CMX-99672. Cytoplasmic proteins were isolated and analyzed for upregulation of SOD and CAT by Western immunoblots as described above. […] The Western blot was scanned to quantify the fold-increase in SOD production in cell cultures treated with the CMX-99672 peptide compound.
Representative peptide compounds were tested at various doses and compared for their ability to upregulate expression of genes for SOD and/or CAT in rat primary cortical cultures basically as described above. Cultures were incubated with a peptide compound for 5 hours at 37° C. Cytoplasmic protein fractions were prepared as described above. Cytoplasmic proteins were separated by gel electrophoresis and analyzed by Western immunoblots using antisera to SOD and CAT, respectively (Rockland, Inc., Gilbertsville, Pa.). […]

[3] = test system: transcription factor AP-1; assay: Electrophoretic mobility shift assay (EMSA) for AP-1 activation in primary rat neurons / cortical cultures; assay type: cell-based
Protocol: Nuclear extracts for electrophoretic mobility shift assays (EMSAs) were prepared as described previously (Adams et al., J. Leukocyte Biol., 62: 865-873 (1997)) using 1.0-2.0×10^7 cells per sample. All buffers were freshly supplemented with dithiothreitol (DTT, 0.5 mM), protease inhibitors: PMSF (0.5 mM), chymostatin, peptstatin-A, aprotinin, antipain, leupeptin (each at 1 μg/ml), and phosphatase inhibitors: NaF (10 mM), ZnCl2 (1 mM), sodium orthovanadate (1 mM), and sodium pyrophosphate (5 mM). Aliquots of the final dialyzates were stored at −80° C. and discarded after use.
AP-1 transcription factor activation was assayed using an electrophoretic mobility shift assay (EMSA), as described by Adams et al., J. Leukoc. Biol., 62:865-873 (1997)). Cultures of primary rat neurons (Cornell-Bell et al., Cell Calcium, 12: 185-204 (1991)) were stimulated for 3 hours with various concentrations (0, 1, 10, 100 ng/ml) of peptide CMX-9236. Nuclear extracts prepared as described above were separated by gel electophoresis on non-denaturing gels and subjected to the EMSA procedure. This EMSA used an AP-1 synthetic duplex probe (Angel, P., 1987, Cell 49:729-739) having the sequence 5′-[…] (SEQ ID NO:33) and its antisense copy (complement strand), which were end-labeled with P^32 using polynucleotide kinase and (γ-P^32)-ATP. For the EMSA reaction, the labeled probe (0.5 pmol) was mixed with 3 μg of nuclear extract protein in a solution containing 10 mM Tris-HCl, pH 7.5, 50 mM NaCl, 1 mM EDTA, 1 mM dithiothreitol, 5% glycerol, 0.02% β-mercaptoethanol, and 1 μg of poly-dI/dC (Pharmacia). Reaction mixtures were incubated at 25° C. for 20 minutes to allow complete complex formation by the duplex with its appropriate AP-1 protein. The mixture was then electrophoresed under non-denaturing conditions through 4% polyacrylamide gels in 0.5×TBE buffer (45 mM Trisma base, 45 mM boric acid, 1 mM EDTA). The gels were dried on 3 mm paper. Bands were visualized by autoradiography at −80° C. with one intensifying screen and quantified by laser densitometry. The upregulation of AP-1 and the activation and upregulation process of AP-1 was compared to control cultures.
Primary cortical cell cultures were grown to confluence and used in in vitro cultures for determining the effects of various representative peptide compounds on upregulation of AP-1. […] Extracts were prepared from the nuclei isolated from the primary culture homogenates, purified, and analyzed for the presence of specific transcription factors using the electrophoretic mobility shift assay (EMSA) method. The binding of ^32P-labeled duplex DNA probes specific for activator protein-1 (AP-1) or nuclear factor κB (NF-κB) was analyzed and quantified by autoradiography. After a 3-hour incubation of the cultures with 1 ng/ml of the peptide CMX-9236 there was a 15-fold increase of AP-1 relative to […] control cultures. […] Thus, a small peptide compound that is less than 20 amino acids long can simulate the properties of large growth factors such as NGF and BDNF, which exist as dimers of protein chains with molecular weights of 13,259 and 13,500, respectively.

[4] = test system: middle cerebral artery (MCA) permanent occlusion stroke model; assay: Permanent MCA 24-hour occlusion stroke model; assay type: in vivo, Sprague-Dawley rats; details: rat, in vivo
Protocol: The in vivo neuroprotective effects of CMX-9236 were investigated in both temporary and permanent occlusion stroke models in Sprague-Dawley rats using an intraluminal suture of the middle cerebral artery (MCA) occlusion method (Zea Longa et al., Stroke, 20: 84 (1989)). Briefly, a 4-0 silicone-coated suture was inserted through the right common carotid artery to block the MCA orifice. In the temporary model, CMX-9236 (6.2 mg/kg/hr) or vehicle was administered via the femoral vein at 30 minutes after the start of a 2-hour occlusion for a 4-hour continuous infusion; the rats were then reperfused by withdrawing the suture at […] after the MCA occlusion. All experiments were performed in a blinded and randomized manner, and rectal temperature was maintained at 37° C. The animals were sacrificed, and their brains were removed, sectioned into six 2-mm-thick coronal slices and stained with 2,3,5-triphenyltetrazolium chloride solution (Bederson et al., Stroke, 17:1304 (1986)) to visualize the extent of brain damage for the calculation of the corrected hemispheric infarct volumes (Nagasawa and Kogure, Stroke, 20:1037 (1989); Li et al., J. Cereb. Blood Flow Metab., 17:1132 (1997)). […] This represents a significant reduction of infarct size (35±5%, p=0.01, student t-test) for the CMX-9236-treated group in the temporary occlusion model. There was also a 58+11% improvement in the neurological scoring (Minematsu et al., Neurology, 42:235 (1992)) for the peptide-treated group versus controls at the end of 24 hours.
In the permanent occlusion stroke model, the blood flow to the MCA territory was blocked for the total 24-hour period. A continuous i.v. infusion (0.5 ml/hr) of the CMX-9236 peptide (2.04 mg/kg/hr) or vehicle was initiated at 30 minutes after occlusion for 6 hours, followed by a bolus i.v. infusion of CMX-9236 (4.0 mg/kg in 0.5 ml delivered over 10 minutes) or vehicle at 12 hours after occlusion. The corrected infarct volumes were 127.5±18 mm^3 versus 216±18 mm^3 for drug-treated animals and controls, respectively. This represents a significant decrease (41±5%, p=0.003, student t-test) in infarct size for the drug-treated group as compared to the vehicle-treated control group (n=10 per group) in the permanent model, indicating a substantial rescue of brain tissue. These findings indicate that CMX-9236 has neuroprotective properties post-trauma in vivo, reducing the brain damage generated by cerebral ischemia.

catalase (CAT) protein = assay: Western immunoblot of CAT protein in rat primary cortical cultures; assay type: cell-based; details: Dose 28 pmol/ml, 5 hours at 37° C.
Protocol: as §1
Representative peptide compounds were tested at various doses and compared for their ability to upregulate expression of genes for SOD and/or CAT in rat primary cortical cultures basically as described above. Cultures were incubated with a peptide compound for 5 hours at 37° C. Cytoplasmic protein fractions were prepared as described above. Cytoplasmic proteins were separated by gel electrophoresis and analyzed by Western immunoblots using antisera to SOD and CAT, respectively (Rockland, Inc., Gilbertsville, Pa.).

catalase (CAT) mRNA = assay: RT-PCR upregulation of catalase (CAT) mRNA in primary rat cortical cultures; assay type: cell-based; details: 10 ng/ml, 3 hours
Description: Peptide compounds of the invention may also upregulate mRNA for catalase (CAT). Experiments using the RT-PCR methods to detect upregulation of CAT mRNA in primary rat cortical brain cultures treated with various representative peptide compounds, i.e., CMX-9236, CMX-9963, and CMX-9967. The catalase probe duplex consisted of a sense primer having the sequence […] (SEQ ID NO:31) and antisense primer having the sequence […] (SEQ ID NO:32) flanking a 95 bp region of the CAT DNA.
Primary rat brain cortical cell cultures were incubated with 100 ng/ml of the peptide compound CMX-9236 for 0, 0.5, 1, 2, 3, 6, 12, 24, and 48 hours. […] The upregulation of CAT mRNA was maximal at 3 hours after the addition of the peptide compound, and it decreased back to control levels at 48 hours. GAPDH was the internal standard in these experiments. […] A 13-fold increase in CAT mRNA levels was observed (over control) of CAT mRNA occurred when primary rat brain cortical cultures were incubated with 100 ng/ml of CMX-9236 for 3 hours.

[5] = test system: superoxide dismutase-1 (SOD-1) mRNA; assay: RT-PCR upregulation of SOD-1 mRNA in rat primary cortical cell cultures; assay type: cell-based; details: 10 ng/ml, 3 hours
Protocol: The RT-PCR method (see, for example, Innis et al., PCR Protocols: A Guide to Methods and Applications, (Academic Press, San Diego, 1990)) was used to investigate the upregulation of the specific mRNA that codes for the enzyme superoxide dismutase (SOD).
Primary cortical cultures were obtained by growing newborn rat brain cortical cells in Delbecco's modified Eagle medium supplemented with 25 μg/ml of gentamycin and 10% fetal calf serum. The cells were isolated from the E-21 cortex of rat brain, plated at a density of 1×10^5 per ml and grown to confluence within four to five days in an atmosphere containing air and 5% CO2 at 37° C. as described in Cornell-Bell et al., Science, 247: 470-473 (1990) and Cell Calcium, 12: 185-204 (1991). Cultures were grown in 20 ml flasks as a monolayer and then exposed to various concentrations of peptides for studies of the effects of peptides on upregulation of genes for SOD and CAT and on the transmigration of transcription factor AP-1 to cell nuclei.
Primary cultures of rat brain cortical cells were incubated with 100 ng/ml of peptide compound CMX-9236 for durations of 0 to 48 hours. mRNA was isolated from the cytoplasmic fraction of lysed cells according to standard methods (Angel et al., Cell 49:729-739, 1987). The RNA was incubated according to the RT-PCR protocol with two strands, 20 nucleotides long, one for the sense and one from the antisense strand. The sequences were selected to be unique for superoxide dismutase-1 (SOD-1), and to span one intron segment. […] The sequence of the two probe segments of the oligo dT segments for SOD are as follows: anti-sense strand, […] (SEQ ID NO:29), and sense strand, […] (SEQ ID NO:30). These span a sequence of 208 base pairs (bp) on the primary SOD sequence. The mixture was then treated with reverse transcriptase to obtain the cDNA according to standard PCR methods. The cDNA was then analyzed by electrophoresis and separated according to sequence lengths on a non-denaturing 5% polyacrylamide gel. The electrophoretically separated molecules were treated with ethidium bromide to stain double-stranded DNA fragments. These were visualized by ultraviolet illumination and photographed. The gels were then analyzed by a laser scanning fluorescence detector to quantitate the amount of messenger RNA for the extent of upregulation of SOD message and its time course of synthesis as a function of stimulation by CMX-9236. Similar methods of analysis were used for other peptides.

KKDGDGDFA [CMX-9902]
Percent Neurological Rescue [1]: 35 ± 12% | Percent Rescue (percent decrease in infarct size vs vehicle controls) [1]: 29 ± 7% | upregulation of SOD proteins (in words) ([2]; culture in vitro studies): upregulated SOD proteins | activation / upregulation of AP-1 (in words) [3]: increased nuclear migration of AP-1

KKETLQFR [CMX-8933, described in U.S. Pat. No. 5,545,719]
neuroprotective effect in permanent MCA assay (in words) [4]: positive neuroprotective effect | activation / upregulation of AP-1 (in words) [3]: upregulated AP-1

KKQYKLGSKTGPGQ [CMX-9901]
neuroprotective effect in permanent MCA assay (in words) [4]: positive neuroprotective effect | activation / upregulation of AP-1 (in words) [3]: upregulated AP-1

[Ac]-Asp Gly Asp Gly Asp Phe Ala (Ac-DGDGDFA) [CMX-9963]
CAT (catalase (CAT) protein): 700 % Control | maximum increase of CAT mRNA (catalase (CAT) mRNA): ~7 fold | SOD ([2]; Dose 6.7 pmol/ml): 1873 % Control | maximum increase of SOD-1 mRNA [5]: around 10 fold

[Ac]-Asp Gly Asp [CMX-9967]
Percent Neurological Rescue [1]: 40 ± 10% | Percent Rescue (percent decrease in infarct size vs vehicle controls) [1]: 20 ± 6% | CAT (catalase (CAT) protein): 200 % Control | maximum increase of CAT mRNA (catalase (CAT) mRNA): 6 fold | SOD ([2]; Dose 28 pmol/ml): 1220 % Control | fold-increase in SOD-1 protein (intensity of antibody binding) ([2]; cells treated 5 hours with 10 and 100 ng/ml): ≥ 20 fold | maximum increase of SOD-1 mRNA [5]: 6 fold
